Laboratory results published in patent publication EP1000062B1, “TRICYCLIC VASOPRESSIN AGONISTS” (Wyeth, priority 1997, dated 1999).

Test system: Vasopressin V2
Assay: Vasopressin V2 agonist effects of test compounds in normal conscious water-loaded rats
Assay type: in vivo
Details: Sprague-Dawley (CD) rats, oral 10 mg/kg, urine collected for four hours; for Osmolality (% Increase): change in osmolality as percent of control; for Urine Volume (% decrease): vs. control
Method: Vasopressin V2 Agonist Effects of Test Compounds in Normal Conscious Water-Loaded Rats:
On the day of test, rats were placed individually into metabolic cages equipped with devices to separate the feces from the urine and containers for collection of urine. Test compound or reference agent was given at an oral dose of 10 mg/kg in a volume of 10 ml /kg. […] Thirty minutes after dosing the test compound, rats were gavaged with water at 30 ml /kg into the stomach using a feeding needle. During the test, rats were not provided with water or food. Urine was collected for four hours after dosing of the test compound. At the end of four hours, urine volume was measured. […] Determinations of Na^+, K^+ and Cl^- ion were carried out using ion specific electrodes in a Beckman SYNCHRON EL-ISE Electrolyte System analyzer. […] In the screening test, two rats were used for each compound. If the difference in the urine volume of the two rats was greater than 50%, a third rat was used.

Compound | Osmolality (% Increase) [%] | Urine Volume (% decrease) [%]
Cc1cnn(-c2ccc(C(=O)N3Cc4cccn4Cc4ccccc43)c(C(F)(F)F)c2)c1 [Example 3, [4-(4-Methyl-pyrazol-1-yl)-2-trifluoromethyl-phenyl]-(5H,11H-pyrrolo[2,1-c][1,4]benzodiazepin-10-yl)-methanone] | 240 | 58
O=C(c1ccc(-n2cccn2)cc1C(F)(F)F)N1Cc2cccn2Cc2ccccc21 [Example 4, (4-Pyrazol-1-yl-2-trifluoromethyl-phenyl)-(5H,11H-pyrrolo[2,1-c][1,4]benzodiazepin-10-yl)-methanone] | 225 | 57
O=C(c1ccc(-n2ccc(C3CC3)n2)cc1C(F)(F)F)N1Cc2cccn2Cc2ccccc21 [Example 5, [4-(3-Cyclopropyl-pyrazol-1-yl)-2-trifluoromethy-phenyl]-(5H,11H-pyrrolo[2,1-c][1,4]benzodiazepin-10-yl)-methanone] | 231 | 56
Cc1cn(-c2ccc(C(=O)N3Cc4cccn4Cc4ccccc43)c(C(F)(F)F)c2)cn1 [Example 6, [4-(4-Methyl-imidazol-1-yl)-2-trifluoromethyl-phenyl]-(5H,11H-pyrrolo[2,1-c][1,4]benzodiazepin-10-yl)-methanone] | 270 | 58
O=C(c1ccc(-n2cncn2)cc1C(F)(F)F)N1Cc2cccn2Cc2ccccc21 [Example 7, (5H,11H-Pyrrolo[2,1-c][1,4]benzodiazepin-10-yl)-(4-[1,2,4]triazol-1-yl-2-trifluoromethylphenyl)-methanone] | 137 | 13
Cc1ccn(-c2ccc(C(=O)N3Cc4cccn4Cc4ccccc43)c(Cl)c2)n1 [Example 9A] | 325 | 70
Cc1ccnn1-c1ccc(C(=O)N2Cc3cccn3Cc3ccccc32)c(Cl)c1 [Example 9B] | 168 | 21
Cc1cnn(-c2ccc(C(=O)N3Cc4cccn4Cc4ccccc43)c(Cl)c2)c1 [Example 11] | 285 | 70
Cc1cn(-c2ccc(C(=O)N3Cc4cccn4Cc4ccccc43)c(Cl)c2)cn1 [Example 12, [2-Chloro-4-(4-methyl-imidazol-1-yl)-phenyl]-(5H,11H-pyrrolo[2,1-c][1,4]benzodiazepin-10-yl)-methanone] | 330 | 69
O=C(c1ccc(-n2ccc(C(F)(F)F)n2)cc1Cl)N1Cc2cccn2Cc2ccccc21 [Example 13, [2-Chloro-4-(3-trifluoromethyl-pyrazol-1-yl)-phenyl]-(5H,11H-pyrrolo[2,1-c][1,4]benzodiazepin-10-yl)-methanone] | 229 | 50
O=C(c1ccc(-n2cncn2)cc1Cl)N1Cc2cccn2Cc2ccccc21 [Example 14, [2-Chloro-4-(1,2,4-triazol-1-yl)-phenyl]-(5H,11H-pyrrolo[2,1-c][1,4]benzodiazepin-10-yl)-methanone] | 406 | 86
O=C(c1ccc(-n2cccc2)cc1Cl)N1Cc2cccn2Cc2ccccc21 [Example 15, (2-Chloro-4-pyrrol-1-yl-phenyl)-(5H,11H-pyrrolo[2,1-c][1,4]benzodiazepin-10-yl)-methanone] | 38 | 47
O=C(c1ccc(-n2cccn2)cc1Cl)N1Cc2cccn2Cc2ccccc21 [Example 16, (2-Chloro-4-pyrazol-1-yl-phenyl)(5H,11H-Pyrrolo[2,1-c][1,4]benzodiazepin-10-yl)-methanone] | 400 | 88
Cc1ccn(-c2ccc(C(=O)N3Cc4ccc(C)n4Cc4ccccc43)c(Cl)c2)n1 [Example 18, [2-Chloro-4-(3-methylpyrazol-1-yl)-phenyl]-(3-methyl-5H,11H-pyrrolo[2,1-c][1,4]benzodiazepin-10-yl)-methanone] | 214 | 52
